Measured values as given in patent US20160287613A1, “SALICYLATES FOR USE IN THE TREATMENT OF CANCER” (priority 2013, published 2016).
“Also recorded” adds a separate entry of the source.

How the values were obtained:
[1] = system: bladder cancer cell line RT 112; experiment: Lactate transport (export): enzymatic determination of lactate in supernatants at 340 nm; assay type: cell-based, human; settings: RT 112, 0.2 mM albumin, pH 6.5 to 7.4, FIG. 1a/b
Protocol: The human bladder tumor cell line RT112 or the human chronic myeloid leukemia cell line K562 were purchased from DKFZ Tumorzell- und datenbank (Institut für experimentelle Pathologie, Heidelberg, FRG) or DSM (Deutsche Sammlung von Mikroorganismen und Zellkulturen GmbH, Braunschweig, FRG) supplemented with 2 mM L-glutamine (BIOCHROM, Berlin, FRG), 1% NEAE (BIOCHROM), 10% heat-inactivated fetal calf serum (BIOCHROM), 100 U/ml penicillin and 50 μg/ml Streptomycin (BIOCHROM) at 37 oc and 5% co2. Only mycoplasma-free cell cultures were used; this was frequently tested using a specific detection kit (BOEHRINGER MANNHEIM, Mannheim, FRG). Qualitative, Enzymatic Determination of Lactate in Supernatants of RT112 Cells at 340 nm RT112 cells were harvested, washed twice and re-suspended in culture media to yield a density of 2×10^5/ml. 500 μl/well of the RT112 cell suspension were seeded into 24 well microtiter plates (BD) and incubated over night at 37° C. and 5% C˜. The Supernatant was replaced by 450 pl pH-adjusted culture medium (pH 6.0-7.4) and 50 111 of the solution of preferred substances or 500 111/well pH-adjusted culture medium alone (control). Again, the cells were incubated for 24 hat 37° C. and 5% CO2. The measurement of lactate in the supernatants at 340 nm (PERKIN-ELMER, Lambda 17. UV-VIS Spectrophotometer, Überlingen, FRG) was performed according to the manufacturer's instructions (SIGMA DIAGNOSTICS, Deisenhofen, FRG; Lactate: Quantitative, Enzymatic Determination of Lactate in Whole Blood at 340 nm (Procedure No. 826-UV)).

cancer cells = experiment: Patient tests with high ASA doses; assay type: in vivo, human; settings: high ASA doses of 90-120 mg/kg bodyweight
Protocol: But in the course of tests it became apparent how to artificially activate the immune system to be conditioned for killing cancer cells in basic environment. The “protection factor” also can be eliminated by the administration of high ASA doses of between 90-120 mg/kg bodyweight of the patient. […] The administered doses that provide this effect are between 90-120 mg/kg bodyweight of the patient of ASA.

RT 112 cancer cells = experiment: Proliferation, [3H]-TdR (3H-thymidine) incorporation assay; assay type: cell-based, human; settings: FIG. 2a
Protocol: The human bladder tumor cell line RT112 or the human chronic myeloid leukemia cell line K562 were purchased from DKFZ Tumorzell- und datenbank (Institut für experimentelle Pathologie, Heidelberg, FRG) or DSM (Deutsche Sammlung von Mikroorganismen und Zellkulturen GmbH, Braunschweig, FRG) supplemented with 2 mM L-glutamine (BIOCHROM, Berlin, FRG), 1% NEAE (BIOCHROM), 10% heat-inactivated fetal calf serum (BIOCHROM), 100 U/ml penicillin and 50 μg/ml Streptomycin (BIOCHROM) at 37 oc and 5% co2. Only mycoplasma-free cell cultures were used; this was frequently tested using a specific detection kit (BOEHRINGER MANNHEIM, Mannheim, FRG). The influence of cytotoxic molecules on the proliferation of RT112 tumor cells was quantified by the measurement of the incorporated tritiated thymidine ([^3H]-TdR) into the cellular DNA of the tumor cells by liquid scintillation counting (LSC). In brief, RT112 cells are harvested, washed twice and re-suspended in culture media (2.5×10^5 /ml). 100 μl/well of the RT112 cell suspension were seeded into 96 well microtiter plates (BECTON DICKINSON) and incubated over night at 37 ° C. and 5% CO2. The supernatant was replaced by 90 μl pH-adjusted culture medium (pH 6.0-7.4) and 10 μl of the solution of preferred substances or 10 μl/well pH-adjusted culture medium alone (control). The cells were incubated for various time periods at 37° C. and 5% CO2. Thereafter, cells were washed twice and re-incubated in fresh pH-adjusted culture medium. And pulsed for 24 h by the addition of 23.125 kBq [^3]-TdR/well (925 kBq/ml, AMERSHAM, Braunschweig, FRG). After freezing and thawing, radioactive DNA of the cultures were transferred to glass fiber filters with an automatic cell harvester (PHARMACIA). The incorporated radioactivity was measured in a liquid scintillation counter (PHARMACIA).

Row | SMILES | lactate efflux (export) compared to the Control [1] | "protection factor" of cancer cells against immune attack (cancer cells) | proliferation of cancer cells (cancer cells) | proliferation (3H-thymidine incorporation) vs control (RT 112 cancer cells; ASA at 1 mM and 2 mM, pH 6.5-7.4, 0.2 mM albumin) | proliferation (3H-thymidine incorporation) vs control (RT 112 cancer cells; above pH 7.1, 0.2 mM albumin) | proliferation (3H-thymidine incorporation) vs control (RT 112 cancer cells; up to pH 7.1, 0.2 mM albumin)
1 | CC(=O)Oc1ccccc1C(=O)O [ASA, acetylsalicylic acid] | produce stimulation of lactate export all over the pH range; also recorded: accelerate the lactate efflux all over the pH range from pH 6.5 to 7.4 | eliminated | proliferation was stopped | appreciable enhancement of proliferation | – | –
2 | Nc1ccc(C(=O)O)c(O)c1 [PAS, 4-aminosalicylic acid] | accelerate the lactate efflux all over the pH range from pH 6.5 to 7.4 | – | – | – | – | –
3 | O=C(O)c1cc(-c2ccc(F)cc2F)ccc1O [Diflunisal, 5-[2,4-difluorophenyl]-salicylic acid] | produce stimulation of lactate export all over the pH range; also recorded: accelerate the lactate efflux all over the pH range from pH 6.5 to 7.4 | – | – | – | produces enhancement | inhibits proliferation slightly
